Measurements reported in PubChem BioAssay AID1918938 (Molecular Pharmacology Branch, DTP, NCI, 2023).

Tested on: 556581-035-R-J1-PDC complex spheroid viability
Assay: Anticancer human tumor 556581-035-R-J1-PDC patient-derived ovarian carcinoma cell line growth inhibition
Conditions: for IC50: curve of first compound; for viability, T/C: stronger effect = lower value
Procedure, shortened: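 Complex spheroids of tumor cells with HUVEC and human MSCs, exposed to iadademstat combined with other agents. Each agent tested in half-log steps from near clinical Cmax (else 10 microM top), DMSO ≤0.25%.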

[1] = second compound 0.1 µM, first compound 0.0316 µM
[2] = second compound 0.1 µM, first compound 0.1 µM
[3] = second compound 0.316 µM, first compound 0.0316 µM
[4] = second compound 0.316 µM, first compound 0.1 µM
[5] = second compound 1 µM, first compound 0.0316 µM
[6] = second compound 1 µM, first compound 0.1 µM
[7] = second compound 3.16 µM, first compound 0.0316 µM
[8] = second compound 3.16 µM, first compound 0.1 µM
[9] = second compound 10 µM, first compound 0.0316 µM
[10] = second compound 10 µM, first compound 0.1 µM
[11] = second compound 0.1 µM, first compound 0.000949 µM
[12] = second compound 0.1 µM, first compound 0.003 µM
[13] = second compound 0.1 µM, first compound 0.00949 µM
[14] = second compound 0.1 µM, first compound 0.03 µM
[15] = second compound 0.1 µM, first compound 0.0949 µM
[16] = second compound 0.1 µM, first compound 0.3 µM
[17] = second compound 0.316 µM, first compound 0.000949 µM
[18] = second compound 0.316 µM, first compound 0.003 µM
[19] = second compound 0.316 µM, first compound 0.00949 µM
[20] = second compound 0.316 µM, first compound 0.03 µM
[21] = second compound 0.316 µM, first compound 0.0949 µM
[22] = second compound 0.316 µM, first compound 0.3 µM
[23] = second compound 1 µM, first compound 0.000949 µM
[24] = second compound 1 µM, first compound 0.003 µM
[25] = second compound 1 µM, first compound 0.00949 µM
[26] = second compound 1 µM, first compound 0.03 µM
[27] = second compound 1 µM, first compound 0.0949 µM
[28] = second compound 1 µM, first compound 0.3 µM
[29] = second compound 3.16 µM, first compound 0.000949 µM
[30] = second compound 3.16 µM, first compound 0.003 µM
[31] = second compound 3.16 µM, first compound 0.00949 µM
[32] = second compound 3.16 µM, first compound 0.03 µM
[33] = second compound 3.16 µM, first compound 0.0949 µM
[34] = second compound 3.16 µM, first compound 0.3 µM
[35] = second compound 10 µM, first compound 0.000949 µM
[36] = second compound 10 µM, first compound 0.003 µM
[37] = second compound 10 µM, first compound 0.00949 µM
[38] = second compound 10 µM, first compound 0.03 µM
[39] = second compound 10 µM, first compound 0.0949 µM
[40] = second compound 10 µM, first compound 0.3 µM
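Note: spheroids exposed to agents for seven days.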
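Throughout, for viability, T/C: 100% = DMSO vehicle control wells.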

CC(C)CC(NC(=O)C(Cc1ccccc1)NC(=O)c1cnccn1)B(O)O (stereo not given) + NC1CCC(NC2CC2c2ccccc2)CC1
IC50 (second compound 0.1 µM): < 0.316 nM
IC50 (second compound 0.316 µM): < 0.316 nM
IC50 (second compound 1 µM): < 0.316 nM
IC50 (second compound 3.16 µM): < 0.316 nM
IC50 (second compound 10 µM): < 0.316 nM
viability, T/C (second compound 0.1 µM, first compound 0.000316 µM): 7.87%
viability, T/C (second compound 0.1 µM, first compound 0.001 µM): 0.11%
viability, T/C (second compound 0.1 µM, first compound 0.00316 µM): 0.13%
viability, T/C (second compound 0.1 µM, first compound 0.01 µM): 0.13%
viability, T/C [1]: 0.08%
viability, T/C [2]: 0.24%
viability, T/C (second compound 0.316 µM, first compound 0.000316 µM): 7.18%
viability, T/C (second compound 0.316 µM, first compound 0.001 µM): 0.45%
viability, T/C (second compound 0.316 µM, first compound 0.00316 µM): 0.63%
viability, T/C (second compound 0.316 µM, first compound 0.01 µM): 0.39%
viability, T/C [3]: 0.44%
viability, T/C [4]: 1.89%
viability, T/C (second compound 1 µM, first compound 0.000316 µM): 11.7%
viability, T/C (second compound 1 µM, first compound 0.001 µM): 0.44%
viability, T/C (second compound 1 µM, first compound 0.00316 µM): 0.91%
viability, T/C (second compound 1 µM, first compound 0.01 µM): 0.17%
viability, T/C [5]: 0.08%
viability, T/C [6]: 0.43%
viability, T/C (second compound 3.16 µM, first compound 0.000316 µM): 7.91%
viability, T/C (second compound 3.16 µM, first compound 0.001 µM): 0.49%
viability, T/C (second compound 3.16 µM, first compound 0.00316 µM): 0.13%
viability, T/C (second compound 3.16 µM, first compound 0.01 µM): 0.07%
viability, T/C [7]: 0.75%
viability, T/C [8]: 0.19%
viability, T/C (second compound 10 µM, first compound 0.000316 µM): 5.64%
viability, T/C (second compound 10 µM, first compound 0.001 µM): 0.22%
viability, T/C (second compound 10 µM, first compound 0.00316 µM): 0.25%
viability, T/C (second compound 10 µM, first compound 0.01 µM): 0.49%
viability, T/C [9]: 0.46%
viability, T/C [10]: 0.24%

CCc1c2c(nc3ccc(O)cc13)-c1cc3c(c(=O)n1C2)COC(=O)[C@]3(O)CC + NC1CCC(NC2CC2c2ccccc2)CC1
IC50 (second compound 0.1 µM): < 0.949 nM
IC50 (second compound 0.316 µM): < 0.949 nM
IC50 (second compound 1 µM): < 0.949 nM
IC50 (second compound 3.16 µM): < 0.949 nM
IC50 (second compound 10 µM): < 0.949 nM
viability, T/C [11]: 20.5%
viability, T/C [12]: 10.8%
viability, T/C [13]: 2.17%
viability, T/C [14]: 0.64%
viability, T/C [15]: 0.13%
viability, T/C [16]: 0.25%
viability, T/C [17]: 20.3%
viability, T/C [18]: 12.4%
viability, T/C [19]: 3.03%
viability, T/C [20]: 1.28%
viability, T/C [21]: 0.23%
viability, T/C [22]: 0.24%
viability, T/C [23]: 20.2%
viability, T/C [24]: 13.4%
viability, T/C [25]: 2.69%
viability, T/C [26]: 0.95%
viability, T/C [27]: 1.3%
viability, T/C [28]: 0.52%
viability, T/C [29]: 20.9%
viability, T/C [30]: 10.9%
viability, T/C [31]: 2.33%
viability, T/C [32]: 0.37%
viability, T/C [33]: 0.36%
viability, T/C [34]: 0.53%
viability, T/C [35]: 20.1%
viability, T/C [36]: 10.3%
viability, T/C [37]: 2.5%
viability, T/C [38]: 0.37%
viability, T/C [39]: 0.19%
viability, T/C [40]: 0.32%

Nc1ccccc1NC(=O)c1ccc(CNC(=O)OCc2cccnc2)cc1 + NC1CCC(NC2CC2c2ccccc2)CC1
IC50 (second compound 0.1 µM): 124 nM
IC50 (second compound 0.316 µM): 103 nM
IC50 (second compound 1 µM): 111 nM
IC50 (second compound 3.16 µM): 69.9 nM
IC50 (second compound 10 µM): 32.2 nM
viability, T/C [13]: 82.9%
viability, T/C [14]: 74.9%
viability, T/C [15]: 56.4%
viability, T/C [16]: 28.5%
viability, T/C (second compound 0.1 µM, first compound 0.949 µM): 17.6%
viability, T/C (second compound 0.1 µM, first compound 3 µM): 1.21%
viability, T/C [19]: 77.4%
viability, T/C [20]: 66.9%
viability, T/C [21]: 53.4%
viability, T/C [22]: 28.7%
viability, T/C (second compound 0.316 µM, first compound 0.949 µM): 15.9%
viability, T/C (second compound 0.316 µM, first compound 3 µM): 1.67%
viability, T/C [25]: 69%
viability, T/C [26]: 71.6%
viability, T/C [27]: 49.6%
viability, T/C [28]: 32.1%
viability, T/C (second compound 1 µM, first compound 0.949 µM): 17.1%
viability, T/C (second compound 1 µM, first compound 3 µM): 0.88%
viability, T/C [31]: 79.5%
viability, T/C [32]: 61.3%
viability, T/C [33]: 47.6%
viability, T/C [34]: 26.4%
viability, T/C (second compound 3.16 µM, first compound 0.949 µM): 18.2%
viability, T/C (second compound 3.16 µM, first compound 3 µM): 1.11%
viability, T/C [37]: 74%
viability, T/C [38]: 49%
viability, T/C [39]: 35.8%
viability, T/C [40]: 17%
viability, T/C (second compound 10 µM, first compound 0.949 µM): 9.24%
viability, T/C (second compound 10 µM, first compound 3 µM): 0.63%

Nc1ccn(C2OC(CO)C(O)C2(F)F)c(=O)n1 (stereo not given) + NC1CCC(NC2CC2c2ccccc2)CC1
IC50 (second compound 0.1 µM): 2.48 nM
IC50 (second compound 0.316 µM): 2.57 nM
IC50 (second compound 1 µM): 2.34 nM
IC50 (second compound 3.16 µM): 2.4 nM
IC50 (second compound 10 µM): 1.98 nM
viability, T/C [11]: 75.4%
viability, T/C [12]: 44.4%
viability, T/C [13]: 43.3%
viability, T/C [14]: 39.6%
viability, T/C [15]: 40.3%
viability, T/C [16]: 36.5%
viability, T/C [17]: 76.9%
viability, T/C [18]: 45.8%
viability, T/C [19]: 33.2%
viability, T/C [20]: 36%
viability, T/C [21]: 34.5%
viability, T/C [22]: 34.1%
viability, T/C [23]: 65.5%
viability, T/C [24]: 48.3%
viability, T/C [25]: 33.5%
viability, T/C [26]: 42.7%
viability, T/C [27]: 40.5%
viability, T/C [28]: 37.8%
viability, T/C [29]: 63%
viability, T/C [30]: 46.3%
viability, T/C [31]: 41.5%
viability, T/C [32]: 42.8%
viability, T/C [33]: 40.7%
viability, T/C [34]: 36.1%
viability, T/C [35]: 61.1%
viability, T/C [36]: 44.9%
viability, T/C [37]: 36.8%
viability, T/C [38]: 42.2%
viability, T/C [39]: 38.3%
viability, T/C [40]: 42.7%

O=C(c1cc(Cc2n[nH]c(=O)c3ccccc23)ccc1F)N1CCN(C(=O)C2CC2)CC1 + NC1CCC(NC2CC2c2ccccc2)CC1
IC50 (second compound 0.1 µM): > 10000 nM
IC50 (second compound 0.316 µM): > 10000 nM
IC50 (second compound 1 µM): > 10000 nM
IC50 (second compound 3.16 µM): > 10000 nM
IC50 (second compound 10 µM): > 10000 nM
viability, T/C [1]: 85.8%
viability, T/C [2]: 93.2%
viability, T/C (second compound 0.1 µM, first compound 0.316 µM): 91.7%
viability, T/C (second compound 0.1 µM, first compound 1 µM): 85.3%
viability, T/C (second compound 0.1 µM, first compound 3.16 µM): 83.9%
viability, T/C (second compound 0.1 µM, first compound 10 µM): 65%
viability, T/C [3]: 87.2%
viability, T/C [4]: 93.7%
viability, T/C (second compound 0.316 µM, first compound 0.316 µM): 90.7%
viability, T/C (second compound 0.316 µM, first compound 1 µM): 86%
viability, T/C (second compound 0.316 µM, first compound 3.16 µM): 62.8%
viability, T/C (second compound 0.316 µM, first compound 10 µM): 65.8%
viability, T/C [5]: 77.4%
viability, T/C [6]: 84.4%
viability, T/C (second compound 1 µM, first compound 0.316 µM): 83.6%
viability, T/C (second compound 1 µM, first compound 1 µM): 78.6%
viability, T/C (second compound 1 µM, first compound 3.16 µM): 72.6%
viability, T/C (second compound 1 µM, first compound 10 µM): 61.3%
viability, T/C [7]: 74.5%
viability, T/C [8]: 73.9%
viability, T/C (second compound 3.16 µM, first compound 0.316 µM): 77.6%
viability, T/C (second compound 3.16 µM, first compound 1 µM): 66.3%
viability, T/C (second compound 3.16 µM, first compound 3.16 µM): 58.1%
viability, T/C (second compound 3.16 µM, first compound 10 µM): 66.5%
viability, T/C [9]: 74.2%
viability, T/C [10]: 77.5%
viability, T/C (second compound 10 µM, first compound 0.316 µM): 69%
viability, T/C (second compound 10 µM, first compound 1 µM): 69.4%
viability, T/C (second compound 10 µM, first compound 3.16 µM): 58.7%
viability, T/C (second compound 10 µM, first compound 10 µM): 55.9%
